Measured values reported in US6495588B2, “Scytonemin and methods of using thereof” (The Regents of the University of California, priority 2000, dated 2002).
Where two headings read alike, the source gives them in different places.

Legend:
GST-PLK1 = target: T1, GST-PLK1 (Homo sapiens, UniProt P53350); experiment: GST-Plk kinase activity kinetic assay (phosphorylation of GST-cdc25C); format: biochemical; conditions: for reduction of GST-PLK1 activity: preincubation 0-45 minutes; for Ki: 10-25 μM ATP, 2, 4, 6 μM SCY
T1 construct: made in house
T1 sequence (P53350 whole entry): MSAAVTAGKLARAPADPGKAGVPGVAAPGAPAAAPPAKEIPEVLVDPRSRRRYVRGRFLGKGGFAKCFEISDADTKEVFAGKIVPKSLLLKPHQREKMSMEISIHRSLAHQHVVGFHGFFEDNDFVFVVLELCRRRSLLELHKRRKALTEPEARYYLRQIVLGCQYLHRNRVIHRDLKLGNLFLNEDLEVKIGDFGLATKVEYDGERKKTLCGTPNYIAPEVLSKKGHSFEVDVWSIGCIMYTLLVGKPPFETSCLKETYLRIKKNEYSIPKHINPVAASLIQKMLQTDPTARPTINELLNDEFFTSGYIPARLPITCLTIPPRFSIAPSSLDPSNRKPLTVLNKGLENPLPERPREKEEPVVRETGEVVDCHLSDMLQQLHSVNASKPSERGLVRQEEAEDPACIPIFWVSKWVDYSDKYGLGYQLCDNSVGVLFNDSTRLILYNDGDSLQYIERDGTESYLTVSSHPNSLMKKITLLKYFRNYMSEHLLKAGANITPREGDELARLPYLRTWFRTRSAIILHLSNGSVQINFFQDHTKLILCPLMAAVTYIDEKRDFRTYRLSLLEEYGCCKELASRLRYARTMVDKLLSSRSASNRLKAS
Description: GST-PLK1, and GST-cdc25C were synthesized as described in Roshak et al. (2000), which is herein incorporated by reference. GST-PLK1 and GST-cdc25C were purified to 20% and 60% purity as determined by SDS-PAGE analysis and Coomassie Blue staining. The remaining impurities were determined to be free GST.
Kinase reactions comprised 350 nM GST-cdc25C, 0.5 μCi [^33P]-γATP (NEN, Cambridge, Mass.), 10 μM unlabelled ATP (Sigma, St. Louis, Mo.), 20 nM GST-PLK1 in kinase reaction buffer comprising 20 mM HEPES (pH 7.4), 50 mM KCl, 10 mM MgCl2, 1 mM EGTA, 0.5 mM DTT. Enzyme and substrates were diluted individually in kinase buffer and the PLK1 solution was pre-activated by incubating at 37° C. for 1 hour prior to its addition to the assay as described in Roshak et al. (2000).
50 μl reactions were conducted in 96 well polypropylene plates. First, 1 nM to 10 μM SCY dissolved in 100% DMSO was added, followed by the addition of enzyme and substrate to give a final concentration of 4% DMSO. The reactions were initiated by the addition of ATP. The reactions progressed for 60 minutes at 37° C., and were then stopped with 25 mM EDTA and 1 mM unlabeled ATP. The samples were transferred to 96 well 0.45 μm millipore filtration plates (Millipore, Bedford, Mass.), the proteins were precipitated with a 10% TCA, 5% sodium pyrophosphate solution (TCA-NaPP), and the plates were filtered using a Millipore microplate filtration unit (Millipore, Bedford, Mass.). The plates were washed twice with the TCA-NaPP solution, twice with 75 mM phosphoric acid, and twice with PBS. After drying at room temperature, scintillation fluid was added to the plate, and [^33P]-γATP incorporation was measured on a Packard Top-Count.
Analysis by autoradiography was performed as described in Roshak et al. (2000). Briefly, GST-PLK1 (20 nM/assay), […], 1 μCi [^32P]-γATP, and 350 nM GST-cdc25C were incubated in microcentrifuge tubes (50 μl/assay) for 60 minutes at 37° C. in the presence of 1 to 10 μM SCY and 10 μM hymenialdisine. The reactions were terminated with 25 mM EDTA, separated by SDS-PAGE and GST-cdc25C phosphorylation was visualized using Imagequest (Molecular Dynamics, Sunnyvale, Calif.). 10 μM hymenialdisine served as a positive control for each assay described above.
To determine whether SCY was acting as and ATP analogue, ATP competition assays were conducted as described above in the presence of increasing concentrations, 10, 15, 20, and 25 μM, of unlabeled ATP and three concentrations of SCY, 2, 4, and 6 μM SCY. The results were plotted using the Grafit statistical analysis program.
To ascertain if inhibition of GST-PLK1, activity by SCY is time dependent, 3 μM and 10 μM SCY were pre-incubated with both enzyme and substrate for 0, 15, 30, and 45 minutes at room temperature. At the end of the pre-incubation period, ATP was added to initiate the activity assay. […] GST-PLK1, activity was reduced by about 58% and about 93% after preincubation with 3 μM and 10 μM SCY, respectively, which is consistent with the levels shown in FIG. 3.

rhPKCβ2 = target: T2, rhPKCβ2 (Homo sapiens, UniProt P05771); experiment: PKC activity assay; format: biochemical; conditions: 0.01 μM ATP; read-out: IC50 rhPKC activity
T2 construct: made in house; host or cells: baculovirus expression system
T2 sequence (P05771 1-673 isoform P05771-2): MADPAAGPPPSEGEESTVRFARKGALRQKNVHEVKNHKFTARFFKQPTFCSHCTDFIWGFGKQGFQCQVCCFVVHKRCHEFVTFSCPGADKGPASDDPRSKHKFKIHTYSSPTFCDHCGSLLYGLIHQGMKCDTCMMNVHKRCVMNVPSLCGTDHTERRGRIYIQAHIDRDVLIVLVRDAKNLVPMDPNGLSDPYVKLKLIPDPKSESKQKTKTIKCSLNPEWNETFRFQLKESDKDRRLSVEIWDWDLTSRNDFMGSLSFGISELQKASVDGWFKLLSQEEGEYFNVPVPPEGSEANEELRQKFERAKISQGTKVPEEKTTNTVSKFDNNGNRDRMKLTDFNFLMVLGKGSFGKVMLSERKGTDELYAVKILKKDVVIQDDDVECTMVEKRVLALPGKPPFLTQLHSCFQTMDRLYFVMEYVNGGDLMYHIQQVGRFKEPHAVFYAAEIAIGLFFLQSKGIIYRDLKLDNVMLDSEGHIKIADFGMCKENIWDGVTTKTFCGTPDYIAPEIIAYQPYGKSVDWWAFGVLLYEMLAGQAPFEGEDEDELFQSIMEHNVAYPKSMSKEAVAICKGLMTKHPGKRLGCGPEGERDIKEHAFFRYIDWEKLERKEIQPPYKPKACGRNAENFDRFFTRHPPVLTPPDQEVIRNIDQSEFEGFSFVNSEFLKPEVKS
Description: RhPKCβ2 was expressed in a baculovirus expression system. Kinase reactions were conducted in 50 μl comprising 0.5 μg rhPKC diluted in 2 mM Tris, and 100 μM EGTA and reaction buffer comprising substrate (0.9 mM EGTA, 1.1 mM CaCl2, 0.01 mg/ml glycogen synthase peptide (H-[…]OH) (Bachem, King of Prussia, Pa.), 40 μg/ml L-α-Phosphatidyl-L-serine, 1 μg/ml 1,3-Diolen, 10 mM MgCl2, pH 7.5). To assess PKA activity, kinase reactions were conducted in 50 μl comprising 0.5 μg PKA (from bovine heart supplied by Sigma, St. Louis, Mo.) diluted in 10 mM MOPS, pH 6.5 and reaction buffer comprising substrate (50 mM MOPS, pH 6.5, 10 mM MgCl2, 0.1 mg/ml Histone-IIA (Sigma, St. Louis, Mo.), 1 μM cAMP). An ATP solution (0.01 μM ATP and 0.5 μCi of [γ^33-P] ATP) was then added to the wells in both assay systems. Inhibitors were added at the indicated concentrations with a final DMSO concentration of 10%. Reactions were allowed to proceed for 20 minutes at 37° C. and were stopped with 25 mM EDTA. The reactions were spotted onto filter paper, washed four times in a beaker comprising 75 mM phosphoric acid and rinsed with acetone. Filters were dried and put in scintillation vials with fluid and counted.

## scytonemin
GST-PLK1; 3 μM SCY
  reduction of GST-PLK1 activity: about 58%
GST-PLK1; 3 μM and 10 μM, preincubation 0, 15, 30, 45 minutes
  time dependence of GST-PLK1 inhibition: not time dependent
GST-PLK1; 10 μM SCY
  reduction of GST-PLK1 activity: about 93%
GST-PLK1; 10 μM unlabelled ATP, 60 minutes at 37° C., IC50±S.E.M., read-out: IC50 for inhibition of GST-PLK1 phosphorylation of GST-cdc25C
  IC50: 1.95 ± 0.07 µM
GST-PLK1; ATP competition, read-out: Ki when fitted as an uncompetitive inhibitor
  Ki: 2.3 ± 1.9 µM
GST-PLK1; ATP competition, read-out: Ki when fitting the data as a competitive inhibitor
  Ki: 3 ± 1.9 µM
GST-PLK1; ATP competition, double-reciprocal plot
  mechanism of inhibition of GST-PLK1: mixed inhibitor
GST-PLK1; in the presence of 10 μM SCY
  GST-cdc25C phosphorylation by GST-PLK1 (phosphorimage): virtually no phosphorylated GST-cdc25C detectable
rhPKCβ2
  IC50: ~3 µM
